Reference: patent publication US20240384350A1, “METHODS OF TREATING CANCER WITH KINASE INHIBITORS” (BOARD OF REGENTS, THE UNIVERSITY OF TEXAS SYSTEM, priority 2021, published 2024)

Experiments:
Test in all cases: Ba/F3 drug screening, Cell Titer Glo, IC50 Mut/WT
Assay type in all cases: cell-based
EGFR E709K L858R = biological target: T1, EGFR E709K L858R (Homo sapiens, UniProt P00533, E709K/L858R); conditions: Classical-Like, 72 hours
T1 construct: expressed in transfected cells; host or cells: Ba/F3 cells, retroviral pBabe-Puro vector

EGFR S720P = biological target: T2, EGFR S720P (Homo sapiens, UniProt P00533, S720P); conditions: Classical-Like, 72 hours
T2 construct: expressed in transfected cells; host or cells: Ba/F3 cells, retroviral pBabe-Puro vector (vector made by GeneScript from EGFR WT)
Protocol: (§1) Data represent the ratio of the IC50 value for a given TKI for cells with a classical-like EGFR mutation to the IC50 value for cells with wildtype EGFR.
(§2) Ba/F3 cell generation, drug screening, and IC50 approximations. Ba/F3 cells were obtained as a gift from Dr. Gordon Mills (MD Anderson Cancer Center), and maintained in RPMI (Sigma) containing 10% FBS, 1% penicillin/streptomycin, and 10 ng/ml recombinant mIL-3 (R&D Biosystems). To establish stable Ba/F3 cell lines, Ba/F3 cells were transduced with retroviruses containing mutant EGFR plasmids for 12-24 hours.
(§3) After 48-72 hours of transduction, 2 μg/ml puromycin (Invitrogen) was added to Ba/F3 cell lines in complete RPMI. To select for EGFR positive cell lines, cells were stained with PE-EGFR (Biolegend) and sorted by FACS. After sorting, EGFR positive cells were maintained in RPMI containing 10% FBS, 1% penicillin/streptomycin, and 1 ng/ml EGF to support cell viability. […] Shortly, cells were plated in 384-well plates (Greiner Bio-One) at 2000-3000 cells per well in technical triplicate. Seven different concentrations of TKIs or DMSO vehicle were added to reach a final volume of 40 μL per well. After 72 hours, 11 μL of Cell Titer Glo (Promega) was added to each well. Plates were incubated for a minimum of 10 minutes, and bioluminescence was determined using a FLUOstar OPTIMA plate reader (BMG LABTECH). Raw bioluminescence values were normalized to DMSO control treated cells, and values were plotted in GraphPad Prism. […] Drug screens were performed in technical triplicate on each plate and either duplicate or triplicate biological replicates.

EGFR T725M = biological target: T3, EGFR T725M (Homo sapiens, UniProt P00533, T725M); conditions: Classical-Like, 72 hours
T3 construct: expressed in transfected cells; host or cells: Ba/F3 cells, retroviral pBabe-Puro vector (vector made by GeneScript from EGFR WT)

EGFR K754E = biological target: T4, EGFR K754E (Homo sapiens, UniProt P00533, K754E); conditions: Classical-Like, 72 hours
T4 construct: expressed in transfected cells; host or cells: Ba/F3 cells, retroviral pBabe-Puro vector

EGFR D761N = biological target: T5, EGFR D761N (Homo sapiens, UniProt P00533, D761N); conditions: Classical-Like, 72 hours
T5 construct: expressed in transfected cells; host or cells: Ba/F3 cells, retroviral pBabe-Puro vector
Protocol: as §1, §2, §3

EGFR S768dupSVD V769M = biological target: T6, EGFR S768dupSVD V769M (Homo sapiens, UniProt P00533, INS768MDS/V769M); conditions: Ex20, 72 hours
T6 construct: expressed in transfected cells; host or cells: Ba/F3 cells, retroviral pBabe-Puro vector (vector made by GeneScript from EGFR S768dupSVD, c.2305G > A)

EGFR D770insNPG = biological target: T7, EGFR D770insNPG (Homo sapiens, UniProt P00533, INS770NPG); conditions: Ex20, 72 hours
T7 construct: expressed in transfected cells; host or cells: Ba/F3 cells, retroviral pBabe-Puro vector

EGFR H773insNPH = biological target: T8, EGFR H773insNPH (Homo sapiens, UniProt P00533, INS773NPH); conditions: Ex20, 72 hours
T8 construct: expressed in transfected cells; host or cells: Ba/F3 cells, retroviral pBabe-Puro vector

EGFR L858R/T790M = biological target: T9, EGFR L858R/T790M (Homo sapiens, UniProt P00533, L858R/T790M); conditions: T790M-like-3S, 72 hours
T9 construct: expressed in transfected cells; host or cells: Ba/F3

EGFR Ex19del/T790M/G724S = biological target: T10, EGFR Ex19del/T790M/G724S (Homo sapiens, UniProt P00533, DEL746-750/G724S/T790M); conditions: T790M-like-3S, 72 hours
T10 construct: expressed in transfected cells; host or cells: Ba/F3

EGFR G724S T790M = biological target: T11, EGFR G724S T790M (Homo sapiens, UniProt P00533, G724S/T790M); conditions: T790M-like-3R, 72 hours
T11 construct: expressed in transfected cells; host or cells: Ba/F3

EGFR L858R/T790M/L718Q = biological target: T12, EGFR L858R/T790M/L718Q (Homo sapiens, UniProt P00533, L718Q/L858R/T790M); conditions: T790M-like-3R, 72 hours
T12 construct: expressed in transfected cells; host or cells: Ba/F3

EGFR E709A G719S = biological target: T13, EGFR E709A G719S (Homo sapiens, UniProt P00533, E709A/G719S); conditions: Ba/F3 cells, EGFR E709A G719S (PACC), Mut/WT
T13 construct: expressed in transfected cells; host or cells: Ba/F3

EGFR E709K = biological target: T14, EGFR E709K (Homo sapiens, UniProt P00533, E709K); conditions: Ba/F3 cells, EGFR E709K (PACC), Mut/WT
T14 construct: expressed in transfected cells; host or cells: Ba/F3
Protocol: (§4) Data represent the ratio of the IC50 value for a given TKI for cells with a PACC EGFR mutation to the IC50 value for cells with wildtype EGFR.
as §2
(§5) After 48-72 hours of transduction, 2 μg/ml puromycin (Invitrogen) was added to Ba/F3 cell lines in complete RPMI. To select for EGFR positive cell lines, cells were stained with PE-EGFR (Biolegend) and sorted by FACS. After sorting, EGFR positive cells were maintained in RPMI containing 10% FBS, 1% penicillin/streptomycin, and 1 ng/ml EGF to support cell viability. Drug screening was performed as previously described^41,42. Shortly, cells were plated in 384-well plates (Greiner Bio-One) at 2000-3000 cells per well in technical triplicate. Seven different concentrations of TKIs or DMSO vehicle were added to reach a final volume of 40 μL per well. After 72 hours, 11 μL of Cell Titer Glo (Promega) was added to each well. Plates were incubated for a minimum of 10 minutes, and bioluminescence was determined using a FLUOstar OPTIMA plate reader (BMG LABTECH). Raw bioluminescence values were normalized to DMSO control treated cells, and values were plotted in GraphPad Prism. […] Drug screens were performed in technical triplicate on each plate and either duplicate or triplicate biological replicates.

EGFR G719A/R776C = biological target: T15, EGFR G719A/R776C (Homo sapiens, UniProt P00533, G719A/R776C); conditions: Ba/F3 cells, EGFR G719A/R776C (PACC), Mut/WT
T15 construct: expressed in transfected cells; host or cells: Ba/F3

EGFR G724S = biological target: T16, EGFR G724S (Homo sapiens, UniProt P00533, G724S); conditions: Ba/F3 cells, EGFR G724S (PACC), Mut/WT
T16 construct: expressed in transfected cells; host or cells: Ba/F3

EGFR I740dupIPVAK = conditions: Ba/F3 cells, EGFR I740dupIPVAK (PACC), Mut/WT
Protocol: as §4, §2, §5

EGFR S768I = biological target: T17, EGFR S768I (Homo sapiens, UniProt P00533, S768I); conditions: Ba/F3 cells, EGFR S768I (PACC), Mut/WT
T17 construct: expressed in transfected cells; host or cells: Ba/F3

EGFR R776C = biological target: T18, EGFR R776C (Homo sapiens, UniProt P00533, R776C); conditions: Ba/F3 cells, EGFR R776C (PACC), Mut/WT
T18 construct: host or cells: Ba/F3

EGFR L858R/L718V = biological target: T19, EGFR L858R/L718V (Homo sapiens, UniProt P00533, L718V/L858R); conditions: Ba/F3 cells, EGFR L858R/L718V (PACC), Mut/WT
T19 construct: host or cells: Ba/F3
Protocol: as §4, §2, §5

EGFR Ex19del/L792H = biological target: T20, EGFR Ex19del/L792H (Homo sapiens, UniProt P00533, DEL746-750/L792H); conditions: Ba/F3 cells, EGFR Ex19del/L792H (PACC), Mut/WT
T20 construct: expressed in transfected cells; host or cells: Ba/F3
Protocol: as §4, §2, §5

EGFR Ex19del/C797S = biological target: T21, EGFR Ex19del/C797S (Homo sapiens, UniProt P00533, C797S/DEL746-750); conditions: Ba/F3 cells, EGFR Ex19del/C797S (PACC), Mut/WT
T21 construct: expressed in transfected cells; host or cells: Ba/F3

EGFR Ex19del T854I = biological target: T22, EGFR Ex19del T854I (Homo sapiens, UniProt P00533, DEL746-750/T854I); conditions: Ba/F3 cells, EGFR Ex19del T854I (PACC), Mut/WT
T22 construct: expressed in transfected cells; host or cells: Ba/F3 (retroviral transduction, pBabe-Puro based vectors)
Protocol: as §4, §2, §5

- ratio of IC50 for cells with mutant EGFR to IC50 for cells with wildtype EGFR (Mut/WT) (EGFR E709K L858R): 0.0006261
- ratio of IC50 for cells with mutant EGFR to IC50 for cells with wildtype EGFR (Mut/WT) (EGFR S720P): 0.01568
- ratio of IC50 for cells with mutant EGFR to IC50 for cells with wildtype EGFR (Mut/WT) (EGFR T725M): 0.004466
- ratio of IC50 for cells with mutant EGFR to IC50 for cells with wildtype EGFR (Mut/WT) (EGFR K754E): 0.1385
- ratio of IC50 for cells with mutant EGFR to IC50 for cells with wildtype EGFR (Mut/WT) (EGFR D761N): 0.01957
- ratio of IC50 for cells with mutant EGFR to IC50 for cells with wildtype EGFR (Mut/WT) (EGFR S768dupSVD V769M): 2.831
- ratio of IC50 for cells with mutant EGFR to IC50 for cells with wildtype EGFR (Mut/WT) (EGFR D770insNPG): 4.93
- ratio of IC50 for cells with mutant EGFR to IC50 for cells with wildtype EGFR (Mut/WT) (EGFR H773insNPH): 5.102
- ratio of IC50 for cells with mutant EGFR to IC50 for cells with wildtype EGFR (Mut/WT) (EGFR L858R/T790M): 0.0336
- ratio of IC50 for cells with mutant EGFR to IC50 for cells with wildtype EGFR (Mut/WT) (EGFR Ex19del/T790M/G724S): 0.02984
- ratio of IC50 for cells with mutant EGFR to IC50 for cells with wildtype EGFR (Mut/WT) (EGFR G724S T790M): 26.17
- ratio of IC50 for cells with mutant EGFR to IC50 for cells with wildtype EGFR (Mut/WT) (EGFR L858R/T790M/L718Q): 11.87
- ratio of the IC50 value for cells with a PACC EGFR mutation to the IC50 value for cells with wildtype EGFR (EGFR E709A G719S): 0.06878
- ratio of the IC50 value for cells with a PACC EGFR mutation to the IC50 value for cells with wildtype EGFR (EGFR E709K): 0.2612
- ratio of the IC50 value for cells with a PACC EGFR mutation to the IC50 value for cells with wildtype EGFR (EGFR G719A/R776C): 0.5224
- ratio of the IC50 value for cells with a PACC EGFR mutation to the IC50 value for cells with wildtype EGFR (EGFR G724S): 26.17
- ratio of the IC50 value for cells with a PACC EGFR mutation to the IC50 value for cells with wildtype EGFR (EGFR I740dupIPVAK): 0.2883
- ratio of the IC50 value for cells with a PACC EGFR mutation to the IC50 value for cells with wildtype EGFR (EGFR S768I): 1.26
- ratio of the IC50 value for cells with a PACC EGFR mutation to the IC50 value for cells with wildtype EGFR (EGFR R776C): 1.504
- ratio of the IC50 value for cells with a PACC EGFR mutation to the IC50 value for cells with wildtype EGFR (EGFR L858R/L718V): 2.619
- ratio of the IC50 value for cells with a PACC EGFR mutation to the IC50 value for cells with wildtype EGFR (EGFR Ex19del/L792H): 0.001792
- ratio of the IC50 value for cells with a PACC EGFR mutation to the IC50 value for cells with wildtype EGFR (EGFR Ex19del/C797S): 11.82
- ratio of the IC50 value for cells with a PACC EGFR mutation to the IC50 value for cells with wildtype EGFR (EGFR Ex19del T854I): 1.44
SMILES: C=CC(=O)Nc1cc(Nc2nccc(-n3cc(CN(C)C)c(-c4ccccc4)n3)n2)c(OC)cc1N1CCOCC1 [Lazertinib]
